Data published in ChEMBL document CHEMBL1136411, “Imidazo[4,5-b]pyridines as corticotropin releasing factor receptor ligands” (Bioorg Med Chem Lett, 2003).

What was measured:
[1] = target: T1, Corticotropin releasing factor receptor (Rattus norvegicus, UniProt P47866+P35353); experiment: In vitro binding affinity to the CRF receptor in rat cortical homogenates
[2] = Maximal plasma concentration at a dose of 1 mg/kg; assay type: ADME, organism-based, Canis lupus familiaris; parameters: dose 1 mg/kg; conditions: dog
[3] = system: Canis familiaris; experiment: Area under the curve at a dose of 1 mg/kg; assay type: ADME, organism-based, Canis lupus familiaris; parameters: dose 1 mg/kg; conditions: dog, in vivo
[4] = Half life was determined; assay type: ADME, organism-based, Canis lupus familiaris; conditions: dog, in vivo
[5] = target: T1, Corticotropin releasing factor receptor; experiment: In vitro binding affinity against Corticotropin releasing factor receptor in rat cortical homogenates
[6] = system: Rattus norvegicus; experiment: Anxiolytic efficacy in rat after peroral administration; assay type: functional; conditions: po

`CCc1nc2c(-c3ccc(Cl)cc3Cl)ccnc2n1[C@H](C)C1CC1` showed a Ki [1] of 0.6 nM.
Work on `CCCC(C)n1c(CC)nc2c(-c3cc(F)c(F)cc3Cl)ccnc21` (stereo unspecified) yielded a Ki [1] of 2.4 nM.
Molecule `CCCC(C)n1c(CC)nc2c(-c3ccc(OC)cc3C(F)(F)F)ccnc21` (stereo unspecified) has a Cmax [2] of 62 nM, a Ki [1] of 0.74 nM and an AUC [3] of 0.182 µM·h. For the same molecule, the half-life [4] was 5.9 h, the Ki [5] was 0.7 nM and the ED50 [6] was 3 mg/kg.
`CCc1nc2c(-c3ccc(OC(F)F)cc3Cl)ccnc2n1C(C)C1CCC1` (stereo unspecified) showed a Cmax [2] of 185 nM, an AUC [3] of 0.795 µM·h and a half-life [4] of 10 h. For the same molecule, the Ki [5] was 0.7 nM and the ED50 [6] was under 3 mg/kg.
For `CCCC(C)n1c(CC)nc2c(-c3ccc(C(C)OC)cc3Cl)ccnc21` (stereo unspecified), the Ki [1] was 3.5 nM.
`CCCC(C)n1c(CC)nc2c(-c3ccc(OC)cc3C)ccnc21` (stereo unspecified) showed a Ki [1] of 0.8 nM.
In the case of `CCc1nc2c(-c3ccc(Cl)cc3Cl)ccnc2n1[C@@H](CC)C1CC1`, the Ki [1] was 0.4 nM.
With `CCc1nc2c(-c3ccc(Cl)cc3Cl)ccnc2n1C(C)C1CCC1` (stereo unspecified) the Ki [1] was 1 nM.
`CCCC(C)n1c(CC)nc2c(-c3ccc(SC)cc3C(F)(F)F)ccnc21` (stereo unspecified) showed a Ki [1] of 1.4 nM.
With `CCc1nc2c(-c3ccc(C(F)(F)F)cc3Cl)ncnc2n1C(C1CC1)C1CC1` the Ki [1] was 1.8 nM.
Molecule `CCC(CCOC)n1c(OC)nc2c(-c3ccc(OC(F)(F)F)cc3Cl)ccnc21` (stereo unspecified) has a Ki [1] of 1.9 nM.
`CCC(CCOC)n1c(C2CC2)nc2c(-c3ccc(C(F)(F)F)cc3Cl)ccnc21` (stereo unspecified) showed a Ki [1] of 20.8 nM.
In the case of `CCCC(C)n1c(CC)nc2c(-c3ccc(/C(C)=N\OC)cc3Cl)ccnc21` (stereo unspecified), the Ki [1] was 2.3 nM.
For `CCC(CCOC)n1c(COC)nc2c(-c3ccc(C(F)(F)F)cc3Cl)ccnc21` (stereo unspecified), the Ki [1] was 82.7 nM.
Molecule `CCc1nc2c(-c3ccc(Cl)cc3Cl)ccnc2n1C(CCOC)C1CCC1` (stereo unspecified) has a Ki [1] of 2.4 nM.
With `CCCC(C)n1c(C(F)F)nc2c(-c3ccc(Cl)cc3Cl)ccnc21` (stereo unspecified) the Ki [1] was 15.8 nM.
In the case of `CCc1nc2c(-c3ccc(C(F)(F)F)cc3Cl)ccnc2n1C(CC)COC` (stereo unspecified), the Ki [1] was 4.7 nM.
`CCCC(C)n1c(CC)nc2c(-c3cc(C)c(OC)cc3C)ccnc21` (stereo unspecified) showed a Ki [1] of 0.6 nM.
`CCCC(C)n1c(CC)nc2c(-c3ccc(C(C)O)cc3Cl)ccnc21` (stereo unspecified) gave a Ki [1] of 5.1 nM.
Molecule `CCCC(C)n1c(CC)nc2c(-c3ccc(Cl)cc3C(C)=O)ccnc21` (stereo unspecified) has a Ki [1] of 95.6 nM.
Molecule `CCc1nc2c(-c3ccc(Cl)cc3Cl)ccnc2n1C(CCOC)C1CC1` (stereo unspecified) has a Ki [1] of 1.5 nM.
Molecule `CCCC(C)n1c(CC)nc2c(-c3ccc(C(F)(F)F)cc3Cl)ccnc21` (stereo unspecified) has a Cmax [2] of 159 nM, a Ki [1] of 1.1 nM and an AUC [3] of 0.604 µM·h. It also gave a half-life [4] of 4.9 h, a Ki [5] of 1.1 nM and an ED50 [6] of 3 mg/kg.
`CCCC(C)n1c(CC)nc2c(-c3ccc(S(C)(=O)=O)cc3C(F)(F)F)ccnc21` (stereo unspecified) showed a Ki [1] of 6.8 nM.
For `CCc1nc2c(-c3ccc(Cl)cc3Cl)ccnc2n1[C@H](CC)C1CC1`, the Ki [1] was 0.2 nM.
In the case of `CCCC(C)n1c(CC)nc2c(-c3ccc(C(C)=O)cc3Cl)ccnc21` (stereo unspecified), the Ki [1] was 1 nM.
`CCc1nc2c(-c3ccc(Cl)cc3Cl)ccnc2n1C(C)CC` (stereo unspecified) showed a Ki [1] of 1.3 nM.
In the case of `CCc1nc2c(-c3ccc(Cl)cc3Cl)ccnc2n1C(CC)CC`, the Ki [1] was 1 nM.
